Reference: patent US7662388B2, “Endogenous peptide and active subfragments thereof” (Innoventus Project AB, priority 2003, dated 2010)

What was measured:
[1] = test system: chicken chorioallantoic membrane (CAM); experiment: chicken chorioallantoic membrane (CAM) angiogenesis assay; format: in vivo; conditions: FGF-2 or VEGF-A 0.2 mg per filter, HRGP 3 mg per filter, three days
Procedure: The effect of HRGP on anglogenesis was tested in the chicken chorioallantoic membrane (CAM) assay.
The conditions for the chorioallantoic membrane (CAM) assay followed essentially a previously described procedure (Friedlander et al (1995), Dixelius et al, (2000)). FGF-2 (Boehringer Mannheim) and VEGF-A (Peprotech) was used at 0.2 mg per filter and purified pHRGP or rHRGP at 3 mg per filter. The treated CAM's were inspected in a light microscope and the score, from 0 (low) to 3 (high) was based on the number of vessel branch points. Average values for 5-6 embryos were recorded.
A filter disc soaked in vehicle or growth factor, with or without HRGP, was placed on top of the CAM in the vicinity of a large vessel and incubated for three days. Treatment of the CAM with growth factors, such as FGF-2, stimulated angiogenesis (FIG. 1C; Table 1).

T241 fibrosarcoma cells [2] = experiment: fibrosarcoma tumour growth in mice (HRGP); format: in vivo; conditions: fibrosarcoma-bearing mice, summary of experiment 4
Procedure: Animal work was carried out at the local animal facility and was approved by the Uppsala University board of animal experimentation and thus performed according to the UKCCCR guidelines for the welfare of animals in experimental neoplasia (Workman et al (1988)). The mice were anesthetized with isoflurane (Forene; Abbott) during all manipulations. Female, 5 week old, C57BL6/1 mice (Mollegard/Bomhultgard, Denmark) were injected with 0.5×10^6 T241 fibrosarcoma cells subcutaneously (s.c.) into the left flank. Animals carrying palpable tumours were randomized (n=7-10 animals/treatment group) and received treatment with vehicle (PBS), 4 mg/kg/day of pHRGP or 5 mg/kg/day of human IgG or His-HRGP, given as daily subcutaneous injections in the right flank. The tumours were measured with a caliper once a day, in a blind procedure, and volumes were calculated by the formula […]. When the tumours reached the upper limit of 2 cm^3, the mice were sacrificed. Three animals in each group were perfused with 4% paraformaldehyde in PBS pH 7.4. Tumours were embedded in paraffin according to standard histological procedures and sectioned at […] thickness.
C57/bl6 mice were inoculated subcutaneously with T241 fibrosarcoma cells on their left flank and when the tumours were palpable (after 4-6 days), a daily treatment was initiated with HRGP or control (PBS; FIG. 2A, or human IgG; FIG. 2B). Endostatin was included in one study for comparison (FIG. 2B). The treatment was given as subcutaneous injections in the right flank until the size of the control tumours reached the upper limit of […] (11 days; FIG. 2A, 14 days; FIG. 2B). Injections with both pHRGP (4 mg/kg/day) and His-HRGP (5 mg/kg/day) led to a drastic reduction in tumour growth and at the time of sacrifice, the size of the tumours was reduced by 67% (FIG. 2A) and 61% (FIG. 2B) respectively, compared to control-treated animals. Endostatin treatment (25 mg/kg/day) lacked significant inhibitory effect on tumour growth in this model (32% decrease).

T241 fibrosarcoma cells [3] = experiment: TUNEL and Ki67 staining of tumour sections; format: in vivo, mice
Procedure: (§1) Paraffin-sections of tumours from control- or HRGP-treated animals were immunohistochemically (IHC) stained for CD31 and Ki67 using a goat anti-mouse CD31 antibody (1506; Santa Cruz), diluted 1:500 and incubated at +4° C. over night, and a rat anti-mouse Ki67 antibody (TEC-3/M7249; DAKO) diluted 1:50 and incubated for 30 min. at room temperature, according to standard IHC procedures. Detection of apoptotic cells by the TUNEL-technique was performed using ApopTag™ (Intergen Company) according to the manufacturer's protocol. Stereological quantification of vascular parameters was performed as described earlier by Weibel et al (1979) and Gundersen et al (1988). Quantification of the relative number of Tunel- and Ki67-positive cells was calculated from approximately 3000 cells per tumour section, in three tumours from each treatment group. Significance at the level of P<0.05 was calculated using Students t-test.

[4] = test system: T241 fibrosarcoma tumour vessels; experiment: CD31 staining and stereological quantification of tumour vascular parameters; format: in vivo, mice
Procedure: as §1
Sections of paraffin-embedded tumours from control (IgG)- or HRGP-treated mice were immunohistochemically stained for CD31 expression to visualise the vessels. […] Stereological quantification of vascular parameters was performed as described earlier by Weibel et al (1979) and Gundersen et al (1988). This method of quantifying tumour angiogenesis relates the length, volume and surface area of the vessels to tumour volume.

BCE cells = experiment: endothelial cell adhesion to matrix proteins; format: cell-based, bovine; conditions: HRGP 100 ng/ml, serum-free medium, 45 min
Procedure: BCE cells were detached using non-enzymatic “Cell Dissociation Solution” (Sigma), washed and re-suspended in DMEM/0.1% BSA and FGF-2 (2 ng/ml). The cells were seeded in serum-free medium, with or without HRGP (100 ng/ml), into wells pre-coated with BSA, collagen I, collagen IV, laminin-1 or vitronectin, respectively (CytoMatrix ECM 205 kit, Chemicon). The cells were incubated for 45 (collagen I, collagen IV and vitronectin) or 60 minutes (laminin-1), washed three times in PBS and stained with Hoechst 33342 (1 μg/ml; Molecular Probes). The cells were micro-photographed using the 2× objective and the number of attached cells was counted using the “Easy Image Analysis” software (Tekno Optik). Statistical analysis was performed by ANOVA and Tukeys honestly significant difference (HSD) test. The standard deviation is based on the pooled variance.

[5] = in vivo; cited from earlier work

HRGP: mature human Histidine Rich Glycoprotein, about 507 amino acid residues
growth factor-induced CAM angiogenesis (newly formed vessels) [1]: effectively inhibited | reduction in tumour volume compared to control-treated mice (T241 fibrosarcoma cells [2]): more than 60% | tumour apoptosis compared to control group (T241 fibrosarcoma cells [3]; TUNEL staining, HRGP vs IgG control): No difference in tumour apoptosis | percentage of apoptotic (TUNEL-positive) cells in the tumours (T241 fibrosarcoma cells [3]; tumours from HRGP-treated mice): less than 1% | proportion of proliferating (Ki67-positive) cells in tumours (T241 fibrosarcoma cells [3]; tumours from HRGP-treated mice, control 43%): 29% | vessel diameter in tumours, visual inspection of CD31 staining ([4]; HRGP-treated vs control): reduced vessel diameter | vascular parameters (length, volume, surface area of vessels related to tumour volume) ([4]; tumours from HRGP-treated vs IgG-treated mice): all six vascular parameters determined were reduced | endothelial cell adhesion to vitronectin, collagen I and collagen IV (BCE cells): decreases endothelial cell adhesion | plasma half-life [5]: three days
